Data as given in ChEMBL document CHEMBL5291721, “A preclinical secondary pharmacology resource illuminates target-adverse drug reaction associations of marketed drugs” (Nat Commun, 2023).
Several values for one entry are separate records, joined by “and”; a condition that tells them apart may be missing. Equal values may be shown once.

What was measured:
Cannabinoid receptor 1 = Cannabinoid receptor 1 (Homo sapiens, UniProt P21554); type: functional, cell-based
[1] = target: T1, Gamma-aminobutyric acid receptor subunit alpha-1 (Rattus norvegicus, UniProt P62813); type: functional
T1 sequence (P62813 whole entry): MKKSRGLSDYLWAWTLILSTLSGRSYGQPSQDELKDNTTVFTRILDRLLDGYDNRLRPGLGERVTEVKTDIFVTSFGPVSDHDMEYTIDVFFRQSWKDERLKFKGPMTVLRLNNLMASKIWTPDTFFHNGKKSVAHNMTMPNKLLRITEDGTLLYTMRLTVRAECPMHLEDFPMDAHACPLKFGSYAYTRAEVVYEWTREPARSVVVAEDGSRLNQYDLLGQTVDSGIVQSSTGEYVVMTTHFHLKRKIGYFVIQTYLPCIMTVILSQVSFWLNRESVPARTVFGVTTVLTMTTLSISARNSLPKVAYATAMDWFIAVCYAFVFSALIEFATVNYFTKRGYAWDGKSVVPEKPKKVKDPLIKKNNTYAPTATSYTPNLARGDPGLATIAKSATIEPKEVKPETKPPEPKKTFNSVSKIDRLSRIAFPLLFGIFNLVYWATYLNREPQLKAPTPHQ

[2] = target: T2, Alpha-2A adrenergic receptor (Homo sapiens, UniProt P08913); type: functional, cell-based
T2 sequence (P08913 whole entry): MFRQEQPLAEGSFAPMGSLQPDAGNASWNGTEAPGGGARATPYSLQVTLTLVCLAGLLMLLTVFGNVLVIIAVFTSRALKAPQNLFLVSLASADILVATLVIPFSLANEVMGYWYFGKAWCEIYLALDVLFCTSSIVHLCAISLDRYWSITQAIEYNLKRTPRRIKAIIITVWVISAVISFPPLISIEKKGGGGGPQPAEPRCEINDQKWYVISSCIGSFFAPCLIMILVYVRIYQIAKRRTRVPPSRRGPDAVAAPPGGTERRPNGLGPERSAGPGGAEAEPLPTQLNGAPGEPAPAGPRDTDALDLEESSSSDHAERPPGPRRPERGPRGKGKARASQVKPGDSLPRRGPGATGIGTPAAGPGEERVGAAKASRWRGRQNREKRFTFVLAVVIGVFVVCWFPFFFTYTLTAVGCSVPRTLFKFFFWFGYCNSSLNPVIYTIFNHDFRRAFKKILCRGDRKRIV

[3] = target: 5-hydroxytryptamine receptor 2B (Homo sapiens, UniProt P41595); type: functional, cell-based
5-hydroxytryptamine receptor 2B, sequence (P41595 whole entry): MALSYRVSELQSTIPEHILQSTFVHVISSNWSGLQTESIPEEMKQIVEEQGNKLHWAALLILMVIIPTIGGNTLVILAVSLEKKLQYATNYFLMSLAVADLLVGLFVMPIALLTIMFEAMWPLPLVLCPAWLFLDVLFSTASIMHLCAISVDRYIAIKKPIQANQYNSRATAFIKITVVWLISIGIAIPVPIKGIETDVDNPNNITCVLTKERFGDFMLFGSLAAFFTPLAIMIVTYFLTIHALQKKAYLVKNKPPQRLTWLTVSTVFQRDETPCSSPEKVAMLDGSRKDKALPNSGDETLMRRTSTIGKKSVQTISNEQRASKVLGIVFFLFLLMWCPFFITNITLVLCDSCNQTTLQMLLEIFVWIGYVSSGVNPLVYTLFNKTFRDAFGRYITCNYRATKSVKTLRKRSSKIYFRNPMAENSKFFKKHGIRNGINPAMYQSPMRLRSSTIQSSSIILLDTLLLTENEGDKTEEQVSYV

[4] = target: Sodium-dependent serotonin transporter (Homo sapiens, UniProt P31645)
Sodium-dependent serotonin transporter, sequence (P31645 whole entry): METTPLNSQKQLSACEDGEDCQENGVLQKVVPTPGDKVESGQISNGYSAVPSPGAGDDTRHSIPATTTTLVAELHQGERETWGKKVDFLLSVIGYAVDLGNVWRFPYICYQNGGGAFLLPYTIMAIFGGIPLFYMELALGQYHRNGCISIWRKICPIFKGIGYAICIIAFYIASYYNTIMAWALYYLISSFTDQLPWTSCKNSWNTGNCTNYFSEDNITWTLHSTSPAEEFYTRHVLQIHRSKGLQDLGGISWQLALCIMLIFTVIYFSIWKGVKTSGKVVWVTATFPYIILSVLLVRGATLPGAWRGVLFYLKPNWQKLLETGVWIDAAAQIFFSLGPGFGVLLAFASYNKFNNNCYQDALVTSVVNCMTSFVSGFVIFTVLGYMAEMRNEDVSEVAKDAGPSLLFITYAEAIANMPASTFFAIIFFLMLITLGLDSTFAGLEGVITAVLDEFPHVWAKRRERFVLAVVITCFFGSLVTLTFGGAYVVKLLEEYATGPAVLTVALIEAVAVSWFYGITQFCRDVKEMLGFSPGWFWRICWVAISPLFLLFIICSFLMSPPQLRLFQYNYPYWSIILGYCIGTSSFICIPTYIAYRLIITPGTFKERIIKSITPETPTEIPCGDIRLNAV

[5] = target: T1, Gamma-aminobutyric acid receptor subunit alpha-1
[6] = target: T3, Alpha-2C adrenergic receptor (Homo sapiens, UniProt P18825); type: functional
T3 sequence (P18825 whole entry): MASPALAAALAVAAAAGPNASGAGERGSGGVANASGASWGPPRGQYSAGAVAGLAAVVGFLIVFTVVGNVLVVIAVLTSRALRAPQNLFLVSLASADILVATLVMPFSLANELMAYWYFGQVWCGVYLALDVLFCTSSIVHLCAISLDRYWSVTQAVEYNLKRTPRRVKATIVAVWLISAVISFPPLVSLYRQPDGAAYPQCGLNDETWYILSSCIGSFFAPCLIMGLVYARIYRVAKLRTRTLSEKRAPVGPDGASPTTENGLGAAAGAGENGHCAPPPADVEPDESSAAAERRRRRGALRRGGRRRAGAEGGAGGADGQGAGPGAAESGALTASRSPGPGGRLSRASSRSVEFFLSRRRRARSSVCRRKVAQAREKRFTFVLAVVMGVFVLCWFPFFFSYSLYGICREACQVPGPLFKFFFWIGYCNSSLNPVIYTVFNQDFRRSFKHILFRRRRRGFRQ

Thromboxane A2 receptor = target: T4, Thromboxane A2 receptor (Homo sapiens, UniProt P21731)
T4 sequence (P21731 whole entry): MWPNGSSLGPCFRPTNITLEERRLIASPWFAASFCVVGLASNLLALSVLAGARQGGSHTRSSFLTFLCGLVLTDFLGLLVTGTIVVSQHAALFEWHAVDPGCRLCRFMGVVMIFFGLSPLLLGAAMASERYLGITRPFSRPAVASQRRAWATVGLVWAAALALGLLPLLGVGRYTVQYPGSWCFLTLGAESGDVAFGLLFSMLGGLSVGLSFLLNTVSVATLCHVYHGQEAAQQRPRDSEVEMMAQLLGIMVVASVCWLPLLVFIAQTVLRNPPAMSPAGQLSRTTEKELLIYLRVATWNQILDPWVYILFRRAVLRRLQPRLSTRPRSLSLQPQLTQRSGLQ

[7] = target: Beta-1 adrenergic receptor (Homo sapiens, UniProt P08588); type: functional
Beta-1 adrenergic receptor, sequence (P08588 whole entry): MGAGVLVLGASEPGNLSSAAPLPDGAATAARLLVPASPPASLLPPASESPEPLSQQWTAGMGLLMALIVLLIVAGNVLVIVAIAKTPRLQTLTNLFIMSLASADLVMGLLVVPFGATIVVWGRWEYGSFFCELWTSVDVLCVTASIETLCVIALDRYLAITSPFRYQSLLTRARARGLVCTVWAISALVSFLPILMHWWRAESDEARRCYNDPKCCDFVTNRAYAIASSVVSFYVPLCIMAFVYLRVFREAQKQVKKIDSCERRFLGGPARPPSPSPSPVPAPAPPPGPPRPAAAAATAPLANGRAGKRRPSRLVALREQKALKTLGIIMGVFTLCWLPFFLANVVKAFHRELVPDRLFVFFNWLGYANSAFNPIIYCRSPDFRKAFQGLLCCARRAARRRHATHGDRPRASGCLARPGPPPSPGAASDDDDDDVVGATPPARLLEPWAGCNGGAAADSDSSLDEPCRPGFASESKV

Mu-type opioid receptor = Mu-type opioid receptor (Homo sapiens, UniProt P35372)
Mu-type opioid receptor, sequence (P35372 whole entry): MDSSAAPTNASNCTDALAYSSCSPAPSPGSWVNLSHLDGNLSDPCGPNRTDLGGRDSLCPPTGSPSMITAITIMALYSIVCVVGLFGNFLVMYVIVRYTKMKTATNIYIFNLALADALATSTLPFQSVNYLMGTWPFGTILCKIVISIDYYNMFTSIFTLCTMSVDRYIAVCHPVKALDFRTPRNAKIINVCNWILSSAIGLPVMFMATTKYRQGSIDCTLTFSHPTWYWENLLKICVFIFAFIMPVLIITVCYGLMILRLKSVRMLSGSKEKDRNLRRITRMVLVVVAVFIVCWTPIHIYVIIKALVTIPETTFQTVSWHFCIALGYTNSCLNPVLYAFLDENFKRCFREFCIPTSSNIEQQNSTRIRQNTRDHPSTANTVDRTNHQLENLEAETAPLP

[8] = target: T5, Cholecystokinin receptor type A (Homo sapiens, UniProt P32238)
T5 sequence (P32238 whole entry): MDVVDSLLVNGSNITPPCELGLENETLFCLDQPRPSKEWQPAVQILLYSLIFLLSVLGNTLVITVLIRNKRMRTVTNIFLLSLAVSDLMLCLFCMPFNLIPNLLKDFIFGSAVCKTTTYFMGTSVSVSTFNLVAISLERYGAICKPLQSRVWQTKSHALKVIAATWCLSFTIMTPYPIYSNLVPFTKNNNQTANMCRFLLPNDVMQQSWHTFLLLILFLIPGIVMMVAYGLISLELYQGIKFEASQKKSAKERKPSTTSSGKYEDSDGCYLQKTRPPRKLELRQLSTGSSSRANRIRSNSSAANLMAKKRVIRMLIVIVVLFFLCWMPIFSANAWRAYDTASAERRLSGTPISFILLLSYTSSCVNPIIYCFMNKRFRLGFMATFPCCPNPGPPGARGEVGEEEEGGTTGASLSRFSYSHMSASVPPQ

Adenosine receptor A3 = target: T6, Adenosine receptor A3 (Homo sapiens, UniProt P0DMS8)
T6 sequence (P0DMS8 whole entry): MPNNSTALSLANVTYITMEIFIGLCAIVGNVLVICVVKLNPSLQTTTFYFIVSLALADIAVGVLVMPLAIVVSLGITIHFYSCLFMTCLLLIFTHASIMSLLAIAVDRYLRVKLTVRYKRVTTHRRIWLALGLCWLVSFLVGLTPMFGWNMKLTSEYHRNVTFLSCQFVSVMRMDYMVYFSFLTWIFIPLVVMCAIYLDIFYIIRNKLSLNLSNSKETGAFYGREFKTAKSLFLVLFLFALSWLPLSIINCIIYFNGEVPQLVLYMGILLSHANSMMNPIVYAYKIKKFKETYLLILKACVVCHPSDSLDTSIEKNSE
Also: assay procedure not described here.

Cannabinoid receptor 1, sequence (P21554 whole entry): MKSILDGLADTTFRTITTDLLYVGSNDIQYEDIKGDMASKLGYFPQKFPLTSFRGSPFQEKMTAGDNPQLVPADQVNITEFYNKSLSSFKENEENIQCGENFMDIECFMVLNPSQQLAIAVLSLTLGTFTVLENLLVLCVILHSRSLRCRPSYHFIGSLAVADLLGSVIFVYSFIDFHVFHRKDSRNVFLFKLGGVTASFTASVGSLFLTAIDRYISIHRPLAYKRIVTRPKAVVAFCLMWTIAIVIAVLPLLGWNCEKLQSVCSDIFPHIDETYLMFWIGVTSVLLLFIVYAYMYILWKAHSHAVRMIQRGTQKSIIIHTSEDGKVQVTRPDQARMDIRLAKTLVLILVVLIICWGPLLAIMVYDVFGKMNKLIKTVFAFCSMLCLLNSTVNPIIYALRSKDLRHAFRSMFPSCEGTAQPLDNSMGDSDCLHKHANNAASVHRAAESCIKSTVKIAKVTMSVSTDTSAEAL

CN(CC1(C)CCCO1)S(=O)(=O)c1ccc(Cl)c(S(N)(=O)=O)c1 (stereo not given) [MEFRUSIDE]
AC50 (Cannabinoid receptor 1): > 30 µM
AC50 [1]: > 30 µM
AC50 [2]: > 30 µM
AC50 [3]: > 30 µM
AC50 [4]: > 30 µM
AC50 [5]: > 30 µM
AC50 [6]: > 30 µM

COc1cc2nc(N3CCN(C(=O)C4CCCO4)CC3)nc(N)c2cc1OC (stereo not given) [TERAZOSIN]
AC50 (Cannabinoid receptor 1): > 30 µM
AC50 [1]: > 10 µM
AC50 [2]: > 30 µM
AC50 (Thromboxane A2 receptor): > 30 µM
AC50 [3]: > 10 µM
AC50 [5]: > 10 µM
AC50 [7]: > 10 µM
AC50 (Mu-type opioid receptor): 3 µM
AC50 [8]: > 30 µM
AC50 (Adenosine receptor A3): > 30 µM

CC(C)Cc1ccc(C(C)C(=O)O)cc1 (stereo not given) [IBUPROFEN]
AC50 (Cannabinoid receptor 1): > 30 µM
AC50 [1]: > 10 µM
AC50 [2]: > 10 µM
AC50 (Thromboxane A2 receptor): > 30 µM
AC50 [3]: > 10 µM
AC50 [5]: > 10 µM
AC50 [6]: > 10 µM
AC50 [7]: > 10 µM
AC50 (Mu-type opioid receptor): > 30 µM
AC50 [8]: > 30 µM
AC50 (Adenosine receptor A3): > 30 µM

C=CC[C@@H]1/C=C(\C)C[C@H](C)C[C@H](OC)[C@H]2O[C@@](O)(C(=O)C(=O)N3CCCC[C@H]3C(=O)O[C@H](/C(C)=C/[C@@H]3CC[C@@H](O)[C@H](OC)C3)[C@H](C)[C@@H](O)CC1=O)[C@H](C)C[C@@H]2OC [TACROLIMUS ANHYDROUS]
AC50 (Cannabinoid receptor 1): > 30 µM
AC50 [1]: > 30 µM
AC50 [2]: 7.2 µM and > 10 µM
AC50 (Thromboxane A2 receptor): 15.3 µM
AC50 [3]: 23 µM and 20 µM
AC50 [5]: > 30 µM
AC50 [6]: > 30 µM
AC50 [7]: > 30 µM
AC50 (Mu-type opioid receptor): > 30 µM
AC50 [8]: > 30 µM
AC50 (Adenosine receptor A3): 11 µM and 27.2 µM

Cc1onc(-c2ccccc2)c1-c1ccc(S(N)(=O)=O)cc1 [VALDECOXIB]
AC50 (Cannabinoid receptor 1): > 30 µM
AC50 [1]: > 10 µM
AC50 [2]: > 10 µM
AC50 (Thromboxane A2 receptor): > 30 µM
AC50 [3]: > 10 µM
AC50 [5]: > 10 µM
AC50 [6]: > 10 µM
AC50 [7]: 8.32 µM
AC50 (Mu-type opioid receptor): > 30 µM
AC50 [8]: > 30 µM
AC50 (Adenosine receptor A3): > 30 µM

C#C[C@]1(O)CC[C@H]2[C@@H]3CCC4=CC(=O)CC[C@@H]4[C@H]3C(=C)C[C@@]21CC [ETONOGESTREL]
AC50 (Cannabinoid receptor 1): > 30 µM
AC50 [1]: 27 µM
AC50 [2]: > 30 µM
AC50 [3]: > 30 µM
AC50 [4]: > 30 µM
AC50 [5]: > 30 µM
AC50 [6]: > 30 µM

C[C@H]1c2cccc(O)c2C(=O)C2=C(O)[C@]3(O)C(=O)C(C(N)=O)=C(O)[C@@H](N(C)C)[C@@H]3[C@@H](O)[C@@H]21 [DOXYCYCLINE]
AC50 (Cannabinoid receptor 1): > 30 µM
AC50 [1]: > 10 µM
AC50 [2]: > 10 µM
AC50 (Thromboxane A2 receptor): > 30 µM
AC50 [3]: > 10 µM
AC50 [5]: > 10 µM
AC50 [6]: > 10 µM
AC50 [7]: > 10 µM
AC50 (Mu-type opioid receptor): > 30 µM
AC50 [8]: > 30 µM
AC50 (Adenosine receptor A3): > 30 µM

O=C1C(CC[S+]([O-])c2ccccc2)C(=O)N(c2ccccc2)N1c1ccccc1 (stereo not given) [SULFINPYRAZONE]
AC50 (Cannabinoid receptor 1): > 30 µM
AC50 [1]: > 10 µM
AC50 [2]: > 30 µM
AC50 (Thromboxane A2 receptor): > 10 µM
AC50 [3]: > 30 µM
AC50 [5]: > 10 µM
AC50 [6]: > 10 µM
AC50 [7]: > 10 µM
AC50 (Mu-type opioid receptor): > 30 µM
AC50 [8]: > 10 µM
AC50 (Adenosine receptor A3): > 10 µM

COc1ccccc1Oc1c(NS(=O)(=O)c2ccc(C(C)(C)C)cc2)nc(-c2ncccn2)nc1OCCO [BOSENTAN]
AC50 (Cannabinoid receptor 1): > 30 µM
AC50 [1]: > 10 µM
AC50 [2]: > 10 µM
AC50 (Thromboxane A2 receptor): > 30 µM
AC50 [3]: > 10 µM
AC50 [5]: > 10 µM
AC50 [6]: > 10 µM
AC50 [7]: > 30 µM
AC50 (Mu-type opioid receptor): > 30 µM
AC50 [8]: > 30 µM
AC50 (Adenosine receptor A3): > 30 µM
